Broadly, the melting point is the temperature, or range, at which the solid turns liquid.

With `COC1=C(OC)C(=O)C(CCCCCCCCCCCCCCCCCCCCO)=C(C)C1=O`, the melting point came out at 85 °C.

Compound `CC1(C)OC(=S)Nc2ccc(-c3cc(F)cc(Cl)c3)cc21` returned a melting point of 204 to 205 °C.

Compound `CCCCCCCCCCCCCCCCCNC(=O)Oc1cccc(N)c1` displayed a melting point of 69 to 75 °C.

As to `Cc1ccc(-c2cccc(/C=C/C(=O)Nc3ccc(-c4cccnc4)cc3)c2)cc1`, the melting point is 213 to 214 °C.

In turn, `CC(C)(C)C(NC(=O)c1ccc(Cl)cc1)Nc1c(Nc2cnc(F)c(Br)c2)c(=O)c1=O` (stereo not drawn) gave a melting point of 249 to 252 °C.

Take `COc1c(C)cc(-c2cncc(OC3SCC(OC(C)=O)C(OC(C)=O)C3OC(C)=O)c2)cc1C` (stereo not drawn): the melting point is 146 °C.

Regarding `COc1cc(-c2cc(C3CCOCC3)no2)cc2oc(=O)c(C)c(C)c12`, the melting point was 151 °C.

Compound `COc1c(/C=C/c2ccc(NS(C)(=O)=O)cc2)cc(N2CCC(=O)NC2=O)cc1C(C)(C)C` gave a melting point of 260 to 261 °C.

`Cc1cn(-c2cccc(C3=Nc4ccc(-c5ccccc5F)cc4NC(=O)C3)c2)c(C)n1`: the melting point is 92 °C.

As to `O=C(NC/C=C\COc1cc(CN2CCCCC2)ccn1)c1cc(-c2ccccc2)on1`, the melting point lay in the range of 105 to 106 °C.

As for `c1ccc2oc3cnnc-3cc2c1`, the melting point was found to be 215 °C.

On to `CCCCc1nc(Sc2ccccc2)c(C(=O)OCC)[nH]1`, for which the melting point is 74 °C.

`CCOC(=O)[C@@H](O)[C@@H]1OC(=O)c2cc(OC)c(OCc3ccccc3)cc21` had a melting point of 138 to 140 °C.

For `O=C(Oc1ccccc1C(=O)NCCO[N+](=O)[O-])c1cccnc1`, the melting point lay within 94 to 96 °C.

Compound `c1ccc2c(c1)cc(Cn1ccnc1)c1ccsc12` gave a melting point of 109 to 111 °C.

`COc1cc(-c2ccccc2)cc(-c2ccccc2)c1` displayed a melting point of 93 to 94 °C.

In turn, `NS(=O)(=O)c1cc(C(=O)O)cc(SCc2ccccc2)c1-c1ccccc1` yielded a melting point of 114 to 120 °C.

`COC1C(O)C(CO)OC1n1ccc(=O)[nH]c1=O` (stereo not drawn) displayed a melting point of 158 to 159 °C.

For the compound `CCOCc1nc2cnc3ccc(OCc4ccccc4)cc3c2n1CC(C)(C)O`, the melting point was in the range of 138 to 140 °C.

`CC12CCC3C(CC=C4CC(F)CCC43C)C1CCC2=O` (stereo not drawn) came in with a melting point of 155 to 156 °C.

Regarding `CC(=O)N1CCc2cc(CC(C)Br)cc([N+](=O)[O-])c21` (stereo not drawn), the melting point is 119 to 120 °C.

Consider `COC(=O)C(Cc1ccc(Cl)cc1Cl)c1c(Cl)cccc1Cl` (stereo not drawn), for which the melting point worked out at 115 °C.

Consider `CCCCCCCOc1ccc(C(=O)O)c(F)c1F`, for which the melting point is 105 °C.

The compound `CSc1nc(=O)n(Cc2ccccc2)c2ncn(COCc3ccccc3)c12` yielded a melting point of 194 to 195 °C.

In the case of `NC1=NN(c2ccc(Cl)cn2)C(c2ccccc2)C1` (stereo not drawn), the melting point lay within 142 to 147 °C.

Regarding `CN1CC=C(c2c[nH]c3ccc(NC(=O)c4ccccc4)cc23)CC1`, the melting point was > 250 °C.

The compound `CC(C)(C)OC(=O)COC1=CC(=O)c2ccccc2C1=O` yielded a melting point of 120 to 122 °C.

The compound `Cc1ccccc1Oc1cc(Cl)ccc1C(=O)O` returned a melting point of 158 to 159 °C.

`Cc1c(Nc2c(C#N)cncc2-c2cc3cc(CN4CCCCC4)ccc3s2)ccc2[nH]ccc12` showed a melting point of 174 to 175 °C.

`COC(=O)Nc1nc2cc(S(=O)CC3CCC3)ccc2[nH]1` (stereo not drawn) gave a melting point of 198 to 206 °C.

`O=C1C(=Cc2ccncc2)c2ccccc2N1c1ccccc1` returned a melting point of 160 to 162 °C.

The compound `CCOP(=O)(/C=C/c1cn(-c2ccccc2)nc1OCc1ccc(OCc2nc(-c3ccc(CC(=O)O)cc3)oc2C)c(OC)c1)OCC` came in with a melting point of 119 to 120 °C.

Take `CC(O)C(C)(C)c1cc(Cn2cncn2)cc(C(C)(C)C#N)c1` (stereo not drawn): the melting point lay in the range of 83 to 84 °C.

Regarding `Cc1cccc(N2CCN(C(=O)CCCCCCC(=O)NO)CC2C)c1` (stereo not drawn), the melting point was 75 to 76 °C.

`N#CC1(Nc2cccc(Cl)c2)CCN(C(=O)c2cc(C(F)(F)F)cc(C(F)(F)F)c2)CC1` displayed a melting point of 205 to 207 °C.

Consider `CCOCCOCc1ccc(-c2ccc3c(c2)C=C(C(=O)Nc2ccc(CN(C)C4CCOCC4)cc2)CCS3(=O)=O)cc1`, for which the melting point lay in the range of 184 to 186 °C.

Consider `CCOC(=O)C(C)(C)Oc1ccc(-c2ccc(CCNC(=O)c3ccc(C)cc3)cc2)cc1`, for which the melting point amounted to 214 °C.

Take `O=C1C(=NO)SCCN1Cc1ccccc1`: the melting point lay in the range of 225 to 227 °C.

Compound `NCCOc1ccc(C(=C(c2ccc(F)cc2)C(F)(F)F)c2ccccc2)cc1` returned a melting point of 83 to 89 °C.

`CSc1ccc(CN2CC(C)(C)C(Oc3ccc(C#N)c(C(F)(F)F)c3)C2=O)cc1` (stereo not drawn) displayed a melting point of 44.1 to 44.8 °C.

Consider `Nc1ccc(-c2cc(=O)cc(N3CCOCC3)o2)cc1`, for which the melting point lay in the range of 258 to 260 °C.

In turn, `C=CCN(CC=C)S(=O)(=O)c1ccc([N+](=O)[O-])cc1[N+](=O)[O-]` registered a melting point of 105 to 106 °C.

Take `COc1ccc(N2CC(CN3CCC(O)(c4ccc(Cl)cc4)CC3)OC2=O)cc1` (stereo not drawn): the melting point lay within 143 to 144 °C.

Compound `O=S(=O)(c1ccccc1)n1c2ccc(C=Cc3ccccc3)cc2c2cc(Cl)cnc21` returned a melting point of 190 to 192 °C.

With `CCCCC1CCc2cc(C(=O)C(C)C)cc3c(CCN4CCN(c5cc(C)ccn5)CC4)c(C)n1c23` (stereo not drawn), the melting point turned out to be 150 °C.

`Cc1cccc(NC(=O)NCC(=O)N(CC(=O)N2CCCc3ccccc32)c2ccccc2)c1` displayed a melting point of 167 °C.

On to `COC(=O)c1cccc(Oc2cccc(Br)n2)c1`, for which the melting point was 68 to 69 °C.

`CCc1nc2c(N)nc(C)c(C)c2n1CCOCCN` registered a melting point of 152 to 154 °C.

In the case of `Cc1ccc(CC2CCN(C(=O)C(=O)Nc3ccc4[nH]c(=O)[nH]c4c3)CC2)cc1`, the melting point was > 280 °C.

Regarding `CC1(C)NC(=O)CN1C(=O)CCl`, the melting point was 151 to 153 °C.

`Cc1cccc2c1nc(COc1ccc(Cl)cc1)n2CCC(Cc1ccccc1)C(=O)N1CCCCC1` (stereo not drawn): the melting point lay within 93.5 to 95 °C.

In turn, `C[C@@H]1CCNC[C@@H]1N(C)c1ncnc2[nH]ccc12` registered a melting point of 158 °C.

For the compound `CCOC(=O)Nc1cc(Cl)nc(NC(=O)OCC)n1`, the melting point was in the range of 153 to 154 °C.

The compound `C=Cn1cc(C(=O)O)c(=O)c2cc(F)c(N3CCN(C)CC3)cc21` came in with a melting point of 242 °C.

On to `CCOC(=O)CC1SC(c2cc(C(C)(C)C)c(O)c(C(C)(C)C)c2)N(CCCN(C)CCOc2ccc3c(c2)OCO3)C1=O` (stereo not drawn), for which the melting point lay in the range of 88 to 89 °C.

Turning to `CCCCCCCCSc1cc(SCCCCCCCC)c2ccc3c(SCCCCCCCC)cc(SCCCCCCCC)c4ccc1c2c43`, the melting point came out at 110 °C.

Regarding `CN(C)Cc1c(O)ccc2cc(Br)ccc12`, the melting point was 95 to 96 °C.

`COC(=O)C(CCCNC(=N)N[N+](=O)[O-])NC(=O)CCCC(=O)NCc1ccccc1` (single isomer, unassigned; (-)) showed a melting point of 97 to 99 °C.

Turning to `CCCCCCNC(=O)NOCC(O)CN1CCCCC1` (stereo not drawn), the melting point was in the range of 50 to 52 °C.

As to `Cn1c(=O)c2[nH]cnc2n(CCCC(=O)O)c1=O`, the melting point fell in the range of 220 to 221 °C.

The compound `Nc1cc(Cl)cc(Cl)c1C(=O)NCC1CCCCC1` came in with a melting point of 168 to 171 °C.

`Cc1ccccc1-c1nc(Cl)c2ccccc2n1` yielded a melting point of 103 to 104 °C.

In turn, `CCc1nn(C2CCCC2)c2cc(-c3cccs3)ccc12` gave a melting point of 60 to 64 °C.

(Values after a melting point compilation (Tetko et al.; mined from patent text by program, amines drawn as free bases though some values may be those of a salt).)
